Reference: PMC9229165, “In Vitro Anticancer Activity Screening of Novel Fused Thiophene Derivatives as VEGFR-2/AKT Dual Inhibitors and Apoptosis Inducers” (Pharmaceuticals, 2022)
“And” between values parts separate entries of the source, which are not always exact repeats. Equal values may be shown once. Read-outs that look alike come from different tables or passages of the source.

What was measured:
HepG2 cells [1] = assay: MTT antiproliferative assay on HepG2; type: cell-based; conditions: mean ± S.D. (n = 3), read-out: Cytotoxicity in IC50, HepG2
Method: (§1) The antiproliferative activity of the thiophene compounds 3a–g, 4a–c, 6a, and 7a–d was evaluated by an in vitro MTT colorimetric assay on two oncogenic cell lines: liver (HepG2) and prostate (PC-3).
(§2) All cell lines (HepG2, PC-3, and nontumorigenic WI38) were supplied from VACSERA (Cairo, Egypt), cultured in DMEM (Invitrogen/Life Technologies, Waltham, MA, USA) at a density of 1.2–1.8 × 10,000 cells/well in a volume of 100 µL of the growth medium, and then incubated for 24 h, and an MTT assay was done as reported by.

PC-3 cells = assay: MTT antiproliferative assay on PC-3; type: cell-based; conditions: mean ± S.D. (n = 3), read-out: Cytotoxicity in IC50, PC-3
Method: as §1, §2

caspase-3 = assay: Active caspase-3 ELISA in HepG2 cells; type: cell-based, human
Method: Apoptosis is known to be carried out through three different pathways: intrinsic, extrinsic, and granzyme pathways. One of the controlling proteins in apoptosis is the cysteine protease named caspase with the chief executer caspase 3 [46, 47]. Accordingly, assessing the effect of 3b and 4c on the active caspase-3 level was done in HepG2 cells taking doxorubicin as the reference drug.
The colorimetric ELISA assay for active caspase-3 detection was carried out utilizing Invitrogen™ Caspase-3 (Cleaved) Human ELISA-Kit (KHO1091, CA, USA) according to the manufacturer’s procedures. ROBONIK P2000 ELISA reader was used at 450 nm, and the standard curve was obtained by plotting the mean absorbance of each standard concentration against human caspase-3 concentrations.

HepG2 cells [2] = assay: Flow cytometric cell cycle analysis; type: cell-based; conditions: HepG2, 48 h, at IC50
Method: AKT-1 is known for its downstream activation of several proteins involved in cell proliferation and apoptosis evasion. In addition, it is reported to be involved in G1–S checkpoint transition and proliferation.
(§3) Analyzing the DNA content in the cell cycle phases by flow cytometry was conducted using FACSCalibur (Becton Dickinson, Franklin Lakes, NJ, USA) following the manufacturer’s manual. The cell cycle analysis procedures were as reported by on HepG2 cells after their treatment with the most promising derivatives for 48 h. Further assessment of the proapoptotic effect was determined by the Annexin V-FITC/PI apoptosis detection kit (Catalog # K101-25, BD Biosciences, San Diego, CA, USA).

HepG2 cells [3] = assay: Annexin V-FITC/PI apoptosis detection; type: cell-based; conditions: HepG2, 48 h
Method: Annexin V/PI staining with flow cytometric analysis was adapted to measure early and late apoptotic cells and necrotic cells as presented in Table 3 and Figure 6.
as §3

VEGFR-2 [4] = molecular target: T1, VEGFR-2 (Homo sapiens, UniProt P35968); assay: VEGFR2 (KDR) kinase assay kit; type: biochemical; set-up: purchased BPS Bioscience 40325; conditions: read-out: VEGFR-2 kinase inhibitory activity IC50
T1 sequence (P35968 20-1356): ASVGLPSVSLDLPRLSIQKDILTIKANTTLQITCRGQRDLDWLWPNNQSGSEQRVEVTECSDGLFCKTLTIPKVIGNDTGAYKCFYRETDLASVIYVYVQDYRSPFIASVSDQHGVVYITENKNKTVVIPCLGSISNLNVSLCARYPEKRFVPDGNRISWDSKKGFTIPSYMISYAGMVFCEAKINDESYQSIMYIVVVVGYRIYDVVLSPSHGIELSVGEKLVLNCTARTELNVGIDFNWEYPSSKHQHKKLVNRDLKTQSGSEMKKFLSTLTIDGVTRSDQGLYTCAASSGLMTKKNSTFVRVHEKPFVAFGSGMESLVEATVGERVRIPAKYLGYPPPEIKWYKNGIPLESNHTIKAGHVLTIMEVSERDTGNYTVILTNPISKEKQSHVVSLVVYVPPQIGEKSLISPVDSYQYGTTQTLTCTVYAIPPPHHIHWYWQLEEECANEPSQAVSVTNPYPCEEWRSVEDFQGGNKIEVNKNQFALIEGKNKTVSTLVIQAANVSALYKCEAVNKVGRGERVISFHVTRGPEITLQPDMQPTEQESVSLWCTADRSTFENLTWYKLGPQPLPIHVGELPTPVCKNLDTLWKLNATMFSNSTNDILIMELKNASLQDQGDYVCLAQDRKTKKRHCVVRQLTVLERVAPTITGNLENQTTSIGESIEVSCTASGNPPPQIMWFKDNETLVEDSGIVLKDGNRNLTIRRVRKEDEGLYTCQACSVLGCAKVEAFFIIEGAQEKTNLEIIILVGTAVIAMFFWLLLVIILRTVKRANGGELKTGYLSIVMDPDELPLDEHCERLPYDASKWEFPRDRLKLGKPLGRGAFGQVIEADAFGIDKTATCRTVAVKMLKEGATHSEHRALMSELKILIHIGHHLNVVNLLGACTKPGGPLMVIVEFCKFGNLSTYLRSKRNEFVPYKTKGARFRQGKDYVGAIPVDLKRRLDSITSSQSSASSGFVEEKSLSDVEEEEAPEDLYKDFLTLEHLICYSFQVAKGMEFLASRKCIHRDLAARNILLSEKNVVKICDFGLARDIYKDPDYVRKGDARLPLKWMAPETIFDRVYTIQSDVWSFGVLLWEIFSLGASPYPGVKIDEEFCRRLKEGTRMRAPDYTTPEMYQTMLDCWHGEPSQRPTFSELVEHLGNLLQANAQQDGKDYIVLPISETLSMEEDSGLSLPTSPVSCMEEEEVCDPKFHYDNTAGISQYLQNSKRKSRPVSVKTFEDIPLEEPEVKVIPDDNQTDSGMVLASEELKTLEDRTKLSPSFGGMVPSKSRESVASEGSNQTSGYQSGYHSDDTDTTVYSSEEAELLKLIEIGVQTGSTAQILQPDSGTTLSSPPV
Source text: (§5) The outcomes were expressed as IC50 values (mean standard deviation) calculated from the dose–response curves and their linear regression equations.

AKT-1 [5] = molecular target: T2, AKT-1 (Homo sapiens, UniProt P31749); assay: Phospho-AKT1 (Ser473) cell-based phosphorylation ELISA in HepG2 cells; set-up: endogenous in cells; host or cells: HepG2
T2 sequence (P31749 whole entry): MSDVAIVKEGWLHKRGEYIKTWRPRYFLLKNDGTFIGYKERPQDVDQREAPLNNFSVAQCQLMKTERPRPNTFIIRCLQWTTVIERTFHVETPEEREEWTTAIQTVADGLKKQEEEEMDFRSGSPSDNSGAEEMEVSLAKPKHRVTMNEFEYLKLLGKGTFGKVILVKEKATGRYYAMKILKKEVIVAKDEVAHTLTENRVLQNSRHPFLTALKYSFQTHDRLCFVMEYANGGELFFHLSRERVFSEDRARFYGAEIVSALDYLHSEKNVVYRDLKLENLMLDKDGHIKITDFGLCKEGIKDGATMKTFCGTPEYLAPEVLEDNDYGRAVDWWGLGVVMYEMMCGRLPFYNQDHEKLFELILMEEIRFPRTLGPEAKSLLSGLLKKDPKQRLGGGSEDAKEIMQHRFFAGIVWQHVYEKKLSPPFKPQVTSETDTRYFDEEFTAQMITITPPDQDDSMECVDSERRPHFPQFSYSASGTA
Method: To investigate the success of the design strategy developed in this work, the effect of the promising candidates 3b and 4c was assessed on AKT-1, a crucial protein, by determining their phosphorylation inhibition rate in HepG2 cells and measuring their biochemical kinase inhibitory activity.
VEGFR-2 phosphorylation was assayed using VEGFR2 Antibody (Phospho-Tyr951) (OAEC00085, AVIVA SYSTEM BIOLOGY), while Akt-1 was assayed by Mouse/Human/Rat Phospho-AKT1 (Ser473) (Cell-Based Phosphorylation ELISA) ELISA Kit-LS-F1447 (LSBio) according to manufacturer’s instructions.

VEGFR-2 [6] = molecular target: T1, VEGFR-2; assay: VEGFR-2 phosphorylation cell-based ELISA in HepG2 cells; conditions: compounds at their formerly determined IC50
Method: VEGFR-2 phosphorylation was assayed using VEGFR2 Antibody (Phospho-Tyr951) (OAEC00085, AVIVA SYSTEM BIOLOGY) [53], while Akt-1 was assayed by Mouse/Human/Rat Phospho-AKT1 (Ser473) (Cell-Based Phosphorylation ELISA) ELISA Kit-LS-F1447 (LSBio) according to manufacturer’s instructions [54].

[7] = MTT assay on normal nononcogenic cell line WI38; type: cell-based; conditions: human, WI38 cells (normal nononcogenic cell line); MTT assay; noncancerous cell line; mean ± S.D. (n = 3); read-out: Cytotoxicity in IC50, WI38
Method: (§4) The aforementioned results illustrate that compounds 3b and 4c are the most promising cytotoxic agents on both cell lines and will be subjected to a thorough mechanistic study to understand their anticancer activity. However, before doing this, their selective toxicity and, thus, their safety were evaluated by measuring the IC50 values against the normal nononcogenic cell line (Wl38) by an MTT assay as listed in Table 1. […] Compound 3b gave SI of 6, and compound 4c gave SI = 12 showing better selectivity toward cancer cells than doxorubicin with SI = 5.
as §2

WI38 cells = assay: MTT assay on normal nononcogenic cell line WI38; type: cell-based; conditions: calculated by dividing the IC50 of WI38/PC-3, SI > 2 is considered safe
Method: as §4, §2

AKT-1 [8] = molecular target: T2, AKT-1; assay: Akt kinase activity assay kit on cell lysate; type: biochemical; conditions: LY2780301 as reference
Source text: as §5

## CN1CCc2sc3nc(-c4ccccc4)[nH]c(=O)c3c21 [3a, 5-Methyl-2-phenyl-3,5,6,7-tetrahydro-4H-pyrrolo[2′,3′:4,5]thieno[2,3-d]pyrimidin-4-one]
other
  melting point: > 250 °C
HepG2 cells [1]; Homo sapiens, HepG2, MTT assay
  IC50: 7.96 ± 0.37 µM
PC-3 cells; Homo sapiens, PC-3, MTT assay
  IC50: 29.6 ± 1.66 µM

## CN1CCc2sc3nc(-c4ccc(Br)cc4)[nH]c(=O)c3c21 [3c, 2-(4-Bromophenyl)-5-methyl-3,5,6,7-tetrahydro-4H-pyrrolo[2′,3′:4,5]thieno[2,3-d]pyrimidin-4-one]
other
  melting point: 113 to 114 °C
HepG2 cells [1]; Homo sapiens, HepG2, MTT assay
  IC50: 107 ± 4.94 µM
PC-3 cells; Homo sapiens, PC-3, MTT assay
  IC50: 10.5 ± 0.59 µM

## CN1CCc2sc3nc(-c4ccc(F)cc4)[nH]c(=O)c3c21 [3d, 2-(4-Fluorophenyl)-5-methyl-3,5,6,7-tetrahydro-4H-pyrrolo[2′,3′:4,5]thieno[2,3-d]pyrimidin-4-one]
other
  melting point: 108 to 110 °C
HepG2 cells [1]; Homo sapiens, HepG2, MTT assay
  IC50: 13.4 ± 0.62 µM
PC-3 cells; Homo sapiens, PC-3, MTT assay
  IC50: 19 ± 1.06 µM

## Cc1ccc(-c2nc3sc4c(c3c(=O)[nH]2)N(C)CC4)cc1 [3e, 5-Methyl-2-(p-tolyl)-3,5,6,7-tetrahydro-4H-pyrrolo[2′,3′:4,5]thieno[2,3-d]pyrimidin-4-one]
other
  melting point: 155 to 156 °C
HepG2 cells [1]; Homo sapiens, HepG2, MTT assay
  IC50: 22.4 ± 1.03 µM
PC-3 cells; Homo sapiens, PC-3, MTT assay
  IC50: 39.7 ± 2.22 µM

## COc1ccc(-c2nc3sc4c(c3c(=O)[nH]2)N(C)CC4)cc1 [3f, 2-(4-Methoxyphenyl)-5-methyl-3,5,6,7-tetrahydro-4H-pyrrolo[2′,3′:4,5]thieno[2,3-d]pyrimidin-4-one]
other
  melting point: 117 to 118 °C
HepG2 cells [1]; Homo sapiens, HepG2, MTT assay
  IC50: 4.3 ± 0.2 µM
HepG2 cells [1]; MTT assay
  IC50: 4.3 ± 0.2 µM
PC-3 cells; Homo sapiens, PC-3, MTT assay
  IC50: 7.47 ± 0.42 µM
PC-3 cells; MTT assay
  IC50: 7.47 ± 0.42 µM

## COc1cc(-c2nc3sc4c(c3c(=O)[nH]2)N(C)CC4)cc(OC)c1OC [3g, 5-Methyl-2-(3,4,5-trimethoxyphenyl)-3,5,6,7-tetrahydro-4H-pyrrolo[2′,3′:4,5]thieno[2,3-d]pyrimidin-4-one]
HepG2 cells [1]; Homo sapiens, HepG2, MTT assay
  IC50: 3.77 ± 0.17 µM
PC-3 cells; Homo sapiens, PC-3, MTT assay
  IC50: 20.5 ± 1.15 µM

## CCOC(=O)c1c(NC(=S)NC)sc2c1N(C)CC2 [4a, Ethyl 4-methyl-2-(3-methylthioureido)-5,6-dihydro-4H-thieno[3,2-b]pyrrole-3-carboxylate]
other
  melting point: 132 to 134 °C
HepG2 cells [1]; Homo sapiens, HepG2, MTT assay
  IC50: 41.1 ± 1.9 µM
PC-3 cells; Homo sapiens, PC-3, MTT assay
  IC50: 1.84 ± 0.1 µM

## CCNC(=S)Nc1sc2c(c1C(=O)OCC)N(C)CC2 [4b, Ethyl 2-(3-ethylthioureido)-4-methyl-5,6-dihydro-4H-thieno[3,2-b]pyrrole-3-carboxylate]
other
  melting point: 135 to 136 °C
HepG2 cells [1]; Homo sapiens, HepG2, MTT assay
  IC50: 34.2 ± 1.58 µM
PC-3 cells; Homo sapiens, PC-3, MTT assay
  IC50: 19.3 ± 1.08 µM

## CCOC(=O)c1c(NC(=S)Nc2cc(C)ccc2Cl)sc2c1N(C)CC2 [4c, Ethyl 2-(3-(2-chloro-5-methylphenyl)thioureido)-4-methyl-5,6-dihydro-4H-thieno[3,2-b]pyrrole-3-carboxylate]
caspase-3
  Increase in active caspase-3 level over the untreated cells: six-fold
HepG2 cells [2]
  % Content of DNA, G0:G1: 53.28%
  % Content of DNA, G2:M: 1.48%
  % Content of DNA, PreG1: 29.81%
  % Content of DNA, S: 45.24%
HepG2 cells [1]; Homo sapiens, HepG2, MTT assay
  IC50: 3.02 µM
HepG2 cells [1]; MTT assay
  IC50: 3.02 ± 0.14 µM
HepG2 cells [3]
  Increase in early apoptotic cells over untreated cells: 7 fold
  Increase in late apoptotic cells over untreated cells: 97 fold
HepG2 cells [3]; at IC50
  Apoptosis, Total (cells percentage): 29.81%
HepG2 cells [3]; at IC50, Q2 in Figure 6
  Apoptosis, Early (cells percentage): 3.85%
HepG2 cells [3]; at IC50, Q3 in Figure 6
  Apoptosis, Late (cells percentage): 16.55%
HepG2 cells [3]; at IC50, Q4 in Figure 6
  Necrosis (cells percentage): 9.41%
VEGFR-2 [4]
  IC50: 0.075 µM
AKT-1 [5]
  AKT-1 phosphorylation inhibition rate: 71.6%
VEGFR-2 [6]
  VEGFR-2 phosphorylation inhibition: 70%
PC-3 cells; Homo sapiens, PC-3, MTT assay
  IC50: 3.12 ± 0.17 µM
[7]
  IC50: 35.3 ± 1.92 µM
WI38 cells
  Selectivity Index (SI): 12 and 11.68
AKT-1 [8]
  IC50: 4.6 µM

## CCOC(=O)c1c(/N=C(/NC)SCC(=O)Nc2ccc(Cl)cc2)sc2c1N(C)CC2 [6a, Ethyl (Z)-2-((((2-((4-chlorophenyl)amino)-2-oxoethyl)thio)(methylamino)methylene)amino)-4-methyl-5,6-dihydro-4H-thieno[3,2-b]pyrrole-3-carboxylate]
other
  melting point: 140 to 141 °C
HepG2 cells [1]; Homo sapiens, HepG2, MTT assay
  IC50: 9.8 ± 0.45 µM
PC-3 cells; Homo sapiens, PC-3, MTT assay
  IC50: 0.5 ± 0.03 µM

## CCOC(=O)c1c(/N=C(/Nc2cc(C)ccc2Cl)SCC(=O)Nc2ccc(Cl)cc2)sc2c1N(C)CC2 [7a, Ethyl (Z)-2-((((2-chloro-5-methylphenyl)amino)((2-((4-chlorophenyl)amino)-2-oxoethyl)thio)methylene)amino)-4-methyl-5,6-dihydro-4H-thieno[3,2-b]pyrrole-3-carboxylate]
other
  melting point: 82 to 83 °C
HepG2 cells [1]; Homo sapiens, HepG2, MTT assay
  IC50: 27.3 ± 1.26 µM
PC-3 cells; Homo sapiens, PC-3, MTT assay
  IC50: 81.1 ± 4.54 µM

## CCOC(=O)c1c(/N=C(/Nc2cc(C)ccc2Cl)SCC(=O)Nc2ccc(Br)cc2)sc2c1N(C)CC2 [7b, Ethyl (Z)-2-((((2-((4-bromophenyl)amino)-2-oxoethyl)thio)((2-chloro-5-methylphenyl)amino)methylene)amino)-4-methyl-5,6-dihydro-4H-thieno[3,2-b]pyrrole-3-carboxylate]
other
  melting point: > 250 °C
HepG2 cells [1]; Homo sapiens, HepG2, MTT assay
  IC50: 2.48 ± 0.11 µM
PC-3 cells; Homo sapiens, PC-3, MTT assay
  IC50: 26.6 ± 1.49 µM

## CCOC(=O)c1c(/N=C(/Nc2cc(C)ccc2Cl)SCC(=O)Nc2ccc(OC)cc2)sc2c1N(C)CC2 [7c, Ethyl (Z)-2-((((2-chloro-5-methylphenyl)amino)((2-((4-methoxyphenyl)amino)-2-oxoethyl)thio)methylene)amino)-4-methyl-5,6-dihydro-4H-thieno[3,2-b]pyrrole-3-carboxylate]
other
  melting point: 110 to 112 °C
HepG2 cells [1]; Homo sapiens, HepG2, MTT assay
  IC50: 39.6 ± 1.83 µM
PC-3 cells; Homo sapiens, PC-3, MTT assay
  IC50: 9.72 ± 0.54 µM

## CCOC(=O)c1c(/N=C(/Nc2cc(C)ccc2Cl)SCC(=O)Nc2ccc(C)cc2)sc2c1N(C)CC2 [7d, Ethyl (Z)-2-((((2-chloro-5-methylphenyl)amino)((2-oxo-2-(p-tolylamino)ethyl)thio)methylene)amino)-4-methyl-5,6-dihydro-4H-thieno[3,2-b]pyrrole-3-carboxylate]
other
  melting point: 118 to 120 °C
HepG2 cells [1]; Homo sapiens, HepG2, MTT assay
  IC50: 8.91 ± 0.41 µM
PC-3 cells; Homo sapiens, PC-3, MTT assay
  IC50: 6.35 ± 0.36 µM

## COc1cccc2c1C(=O)c1c(O)c3c(c(O)c1C2=O)C[C@@](O)(C(=O)CO)C[C@@H]3O[C@H]1C[C@H](N)[C@H](O)[C@H](C)O1 [Doxorubicin, reference compound]
caspase-3
  Increase in active caspase-3 level over the untreated cells: seven-fold
HepG2 cells [1]; Homo sapiens, HepG2, MTT assay
  IC50: 2.09 ± 0.1 µM
PC-3 cells; Homo sapiens, PC-3, MTT assay
  IC50: 2.53 ± 0.14 µM
[7]
  IC50: 9.84 ± 0.54 µM
WI38 cells
  Selectivity Index (SI): 4.69
WI38 cells; listed as doxorubicin
  Selectivity Index (SI): 5

## CN(C)CCn1cc(-c2ccc(F)c(C(F)(F)F)c2)nc1C1CCN(c2ncnc3c2CC(=O)N3)CC1 [LY2780301, reference compound]
AKT-1 [5]
  AKT-1 phosphorylation inhibition rate: 68.6%
AKT-1 [8]
  IC50: 4.62 µM
